Where two headings read alike, the source gives them in different places.
Columns and labels:
TNKS2 = molecular target: T1, TNKS2 (Homo sapiens, UniProt Q9H2K2); experiment: TNKS2 activity ELISA (autoparsylation assay); type: biochemical
T1 construct: GST-tagged Tnks-2 (873-1166 aa, prepared in-house); made in house
Description: (§1) Description of the TNKS1 and TNKS2 ELISA Assay
(§2) Biochemical Activity Testing of TNKS 1 and 2: Activity ELISA (Autoparsylation Assay)
(§3) For analysis of autoparsylation activity of TNKS 1 and 2 an activity ELISA iss performed: In the first step GST tagged TNKS is captured on a Glutathione coated plate. Then the activity assay with biotinylated NAD is performed in the absence/presence of the compounds. During the enzymatic reaction GST tagged TNKS transfers biotinylated ADP-ribose to itself from biotinylated NAD as co-substrate. For the detection streptavidin-HRP conjugate is added that binds to the biotinylated TNKS and is thereby captured to the plates. The amount of biotinylated resp. autoparsylated TNKS is detected with a luminescence substrate for HRP. The level of the luminescence signal correlates directly with the amount of autoparsylated TNKS and therefore with activity of TNKS.
(§4) The activity ELISA is performed in 384 well Glutathione coated microtiter plates (Express capture Glutathione coated plate, Biocat, Heidelberg, Germany). The plates are pre-equilibrated with PBS. […] The plates are washed 3 times with PBS-Tween-20. The wells are blocked by incubation at room temperature for 20 minutes with 50 μl blocking buffer (PBS, 0.05% Tween-20, 0.5% BSA). Afterwards the plates are washed 3 times with PBS-Tween-20. […] The reaction is stopped by 3 times washing with PBS-Tween-20. For the detection 50 μl of 20 ng/μl Streptavidin, HRP conjugate (MoBiTec, Göttingen, Germany) in PBS/0.05% Tween-20/0.01% BSA are added and the plates are incubated for 30 minutes at room temperature. After three times washing with PBS-Tween-20 50 μl of SuperSignal ELISA Femto Maximum sensitivity substrate solution (ThermoFisherScientific (Pierce), Bonn, Germany) are added. Following a 1 minute incubation at room temperature luminescence signals are measured with an Envision multimode reader (Perkin Elmer LAS Germany GmbH) at 700 nm. The full value used is the inhibitor-free reaction. […] The inhibitory values (IC50) are determined using either the program Symyx Assay Explorer® or Condosseo® from GeneData.

TNKS1 = molecular target: T2, TNKS1 (Homo sapiens, UniProt O95271); experiment: TNKS1 activity ELISA (autoparsylation assay); type: biochemical
T2 construct: GST-tagged Tnks-1 (1023-1327 aa, prepared in-house); made in house
T2 sequence (O95271 1023-1327): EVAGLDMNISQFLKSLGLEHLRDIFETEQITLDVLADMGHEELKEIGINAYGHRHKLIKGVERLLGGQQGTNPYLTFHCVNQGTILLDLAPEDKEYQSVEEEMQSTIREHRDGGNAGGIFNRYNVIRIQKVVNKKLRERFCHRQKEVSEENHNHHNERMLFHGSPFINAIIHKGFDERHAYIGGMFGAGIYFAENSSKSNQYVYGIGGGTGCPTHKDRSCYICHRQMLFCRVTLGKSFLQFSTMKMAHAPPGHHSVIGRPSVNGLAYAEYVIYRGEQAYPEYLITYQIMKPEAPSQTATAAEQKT
Description: as §1, §2, §3, §4

Tankyrase = test system: T3, Tankyrase; experiment: Measurement of cellular inhibition of Tankyrase (Axin2 level in DLD1 cells, Luminex based assay); type: cell-based; details: read-out: EC50 [M] TNKS cellular assay; DLD1 cells, Axin2 increase, 24 hours
T3 construct: TNKS cellular assay; other: DLD1 cells, Axin2 increase, 24 hours
Description: Measurement of Cellular Inhibition of Tankyrase
Cells of the colon carcinoma cell line DLD1 are plated in 96 well plates with 1.5×10^4 cells per well. Next day, cells are treated with a serial dilution of test compound in seven steps as triplicates with a final DMSO concentration of 0.3%. […] The amount of isolated Axin2 protein is determined in a Luminex^200 machine (Luminex Corporation) according to the manufacturer's instruction by counting 100 events per well. […] As controls cells are treated with solvent alone (neutral control) and with a Tankyrase reference inhibitor IWR-2 (3E-06 M) which refers as control for maximum increase of Axin2. For analysis, the obtained data are normalized against the untreated solvent control and fitted for determination of the EC50 values using the Assay Explorer software (Accelrys).

PARP-1 = molecular target: T4, PARP-1 (Homo sapiens, UniProt P09874); experiment: PARP-1 autoparsylation assay (HTRF); type: biochemical; details: His-tagged Parp-1, autoparsylation
T4 construct: purchased Enzo Life Sciences GmbH, Lörrach, Germany
T4 sequence (P09874 whole entry): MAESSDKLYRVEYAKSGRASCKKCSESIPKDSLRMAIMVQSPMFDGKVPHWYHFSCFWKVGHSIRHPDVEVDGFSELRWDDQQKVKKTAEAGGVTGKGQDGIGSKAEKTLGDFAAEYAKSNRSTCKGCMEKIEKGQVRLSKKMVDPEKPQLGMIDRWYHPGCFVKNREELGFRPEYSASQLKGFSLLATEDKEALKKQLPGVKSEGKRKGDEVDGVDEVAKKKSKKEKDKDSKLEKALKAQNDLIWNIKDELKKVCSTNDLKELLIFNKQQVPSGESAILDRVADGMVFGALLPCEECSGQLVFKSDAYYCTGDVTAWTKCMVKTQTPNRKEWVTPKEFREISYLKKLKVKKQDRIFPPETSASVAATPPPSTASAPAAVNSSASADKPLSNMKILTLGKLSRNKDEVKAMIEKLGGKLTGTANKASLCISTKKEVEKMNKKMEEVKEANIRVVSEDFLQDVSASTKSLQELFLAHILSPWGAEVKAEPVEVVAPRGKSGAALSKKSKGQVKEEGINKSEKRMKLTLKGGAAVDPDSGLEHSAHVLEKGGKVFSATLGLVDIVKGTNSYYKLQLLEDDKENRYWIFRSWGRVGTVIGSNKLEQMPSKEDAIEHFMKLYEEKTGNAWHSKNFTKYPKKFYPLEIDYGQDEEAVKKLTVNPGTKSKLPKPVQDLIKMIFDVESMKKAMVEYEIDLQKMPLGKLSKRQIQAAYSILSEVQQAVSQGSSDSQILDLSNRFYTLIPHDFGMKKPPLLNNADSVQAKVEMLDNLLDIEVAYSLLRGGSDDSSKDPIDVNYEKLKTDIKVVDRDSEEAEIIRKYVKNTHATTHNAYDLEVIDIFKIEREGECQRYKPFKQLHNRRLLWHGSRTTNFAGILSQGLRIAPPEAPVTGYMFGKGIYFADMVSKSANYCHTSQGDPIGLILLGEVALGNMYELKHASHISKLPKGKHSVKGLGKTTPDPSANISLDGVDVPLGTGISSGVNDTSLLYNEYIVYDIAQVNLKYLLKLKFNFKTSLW

[1] = GST-tagged Tnks-2, read-out: IC50 [M] TNKS2 ELISA
[2] = GST-tagged Tnks-1, read-out: IC50 [M] TNKS1 ELISA

T1 sequence (Q9H2K2 873-1166): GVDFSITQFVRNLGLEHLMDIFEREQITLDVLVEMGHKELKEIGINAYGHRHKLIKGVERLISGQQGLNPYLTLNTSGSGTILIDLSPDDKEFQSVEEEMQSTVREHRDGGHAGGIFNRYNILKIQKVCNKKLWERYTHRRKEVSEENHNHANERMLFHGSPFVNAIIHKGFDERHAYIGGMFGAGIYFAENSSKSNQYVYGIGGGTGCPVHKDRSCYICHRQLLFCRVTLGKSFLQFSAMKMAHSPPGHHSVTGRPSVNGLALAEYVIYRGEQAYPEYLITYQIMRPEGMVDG

Row | Structure (SMILES) | IC50 (TNKS2; [1]) [M] | IC50 (TNKS1; [2]) [M] | EC50 (Tankyrase) [M] | IC50 (PARP-1) [nM] | IC50 (TNKS2) [M] | IC50 (TNKS1) [M]
1 | COc1ccc(C(=O)C2CCN(C(=O)CCCc3nc4ccc(F)cc4c(=O)[nH]3)CC2)cc1 [Compound A19, 6-Fluoro-2-{4-[4-(4-methoxy-benzoyl)-piperidin-1-yl]-4-oxo-butyl}-3H-quinazolin-4-one] | 3.2e-10 | 3.1e-10 | 8.3e-10 | 710 |  | 
2 | COc1ccc(C(=O)C2CCN(C(=O)CCCc3nc4ccc(F)cc4c(=O)[nH]3)CC2)cc1F [Compound A20, 6-Fluoro-2-{4-[4-(3-fluoro-4-methoxy-benzoyl)-piperidin-1-yl]-4-oxo-butyl}-3H-quinazolin-4-one] | 2.5e-10 | 2.5e-10 | 3.4e-09 | 960 |  | 
3 | COc1ccc(C(=O)C2CCN(C(=O)CCCc3nc4ccc(F)cc4c(=O)[nH]3)CC2)cn1 [Compound A21, 6-Fluoro-2-{4-[4-(6-methoxy-pyridine-3-carbonyl)-piperidin-1-yl]-4-oxo-butyl}-3H-quinazolin-4-one] | 6.8e-10 | 7.5e-10 | 7.8e-09 | 550 |  | 
4 | N#Cc1ccc(OC2CCN(C(=O)CCCc3nc4ccc(F)cc4c(=O)[nH]3)CC2)cc1 [Compound A22, 4-{1-[4-(6-Fluoro-4-oxo-3,4-dihydro-quinazolin-2-yl)-butyryl]-piperidin-4-yloxy}-benzonitrile] | 7.6e-08 | 1.3e-07 | 5.6e-07 | 640 |  | 
5 | COc1ccc(C(=O)C2CCN(C(=O)CCCc3nc4ccc(F)cc4c(=O)[nH]3)CC2)cc1C [Compound A24, 6-Fluoro-2-{4-[4-(4-methoxy-3-methyl-benzoyl)-piperidin-1-yl]-4-oxo-butyl}-3H-quinazolin-4-one] | 1.4e-10 | 1.6e-10 | 1e-09 | 1000 |  | 
6 | COc1ccc(C(=O)C2CCN(C(=O)CCCc3nc4c(F)cccc4c(=O)[nH]3)CC2)cc1 [Compound A25, 8-Fluoro-2-{4-[4-(4-methoxy-benzoyl)-piperidin-1-yl]-4-oxo-butyl}-3H-quinazolin-4-one] | 2e-10 | 2.8e-10 | 2.1e-09 | 2100 |  | 
7 | COc1ccc(C(=O)C2CCN(C(=O)CCCc3nc4c(F)cccc4c(=O)[nH]3)CC2)cc1F [Compound A26, 8-Fluoro-2-{4-[4-(3-fluoro-4-methoxy-benzoyl)-piperidin-1-yl]-4-oxo-butyl}-3H-quinazolin-4-one] | 2e-10 | 3e-10 | 1.3e-09 | 1300 |  | 
8 | N#Cc1ccc(OC2CCN(C(=O)CCCc3nc4c(F)cccc4c(=O)[nH]3)CC2)cc1 [Compound A27, 4-{1-[4-(8-Fluoro-4-oxo-3,4-dihydro-quinazolin-2-yl)-butyryl]-piperidin-4-yloxy}-benzonitrile] |  |  | 4.4e-07 | 1.3 | 8.6e-08 | 1.5e-07
9 | O=C(c1ccc(F)cc1)C1CCN(C(=O)CCCc2nc3c(F)cccc3c(=O)[nH]2)CC1 [Compound A28, 8-Fluoro-2-{4-[4-(4-fluoro-benzoyl)-piperidin-1-yl]-4-oxo-butyl}-3H-quinazolin-4-one] | 6.2e-10 | 8.7e-10 | 4.2e-08 | 3300 |  | 
10 | COc1ccc(C(=O)C2CCN(C(=O)CCCc3nc4c(F)cccc4c(=O)[nH]3)CC2)cc1C [Compound A29, 8-Fluoro-2-{4-[4-(4-methoxy-3-methyl-benzoyl)-piperidin-1-yl]-4-oxo-butyl}-3H-quinazolin-4-one] | < 1e-10 | 1.2e-10 | 6.2e-10 | 2600 |  | 
11 | Nc1ncc(C2CCN(C(=O)CCCc3nc4ccccc4c(=O)[nH]3)CC2)cc1-c1ncccn1 [Compound A30, 2-[4-(6-Amino-5-pyrimidin-2-yl-3′,4′,5′,6-tetrahydro-2′H-[3,4]bipyridinyl-1′-yl)-4-oxo-butyl]-3H-quinazolin-4-one] |  |  | 1.2e-09 | 670 | 3e-10 | 4.1e-10
